Test system: PR/SET domain 16 (PRDM16)
Experiment: qPCR expression of thermogenesis gene PRDM16 in brown adipose tissue
Type: in vivo, C57BL6 mice
Settings: mRNA, brown adipose tissue (BAT), high-fat diet mice; compared to HFD group
Protocol: Five-week-old male C57BL6 mice were purchased and acclimated for one week. Then, the mice in each group (n=10) were fed a low-fat diet or high-fat diet. After first allowing them to consume a low-fat diet or high-fat diet for a week, the mice in each group were orally administered with Lactobacillus plantarum HAC03, quercetin, or rutin once a day for 14 weeks.
Then, the expression levels of lipogenesis-related genes were measured at the mRNA level through qPCR.
Specifically, the colons of mice in each experimental group were homogenized, dissolved in Trizol® (RNA extraction buffer, Thermo Fisher), and RNA was extracted according to the protocol provided by the manufacturer. The extracted RNA was quantified, and an equal amount of RNA was synthesized into cDNA by reverse transcription using the SuperiorScript III cDNA synthesis Kit (Enzynomics, Daejeon, South Korea). Thereafter, real-time PCR was performed using each gene-specific primer in Table 3, TOPreal qPCR 2X premix (SYBR Green with high ROX) (Enzynomics, Daejeon, South Korea), and cDNA. Real-time PCR was performed using the ABI 7500 Fast Real time PCR system (Applied Biosystems, Waltham, MA, USA). The relative gene expression levels were calculated using the ÄÄCt method.

SMILES: O=c1c(O)c(-c2ccc(O)c(O)c2)oc2cc(O)cc(O)c12 [Q, Quercetin]
- expression level of PRDM16: increased

From patent US20250268960A1, “COMPOSITION FOR PREVENTION AND TREATMENT OF OBESITY OR INSULIN RESISTANCE SYNDROME COMPRISING LACTOBACILLUS PLANTARUM HAC03 AND RUTIN” (HANDONG GLOBAL UNIVERSITY INDUSTRY-ACADEMIC COOPERATION …, priority 2023, published 2025)
